Patent publication US12239686B2, “Immune checkpoint inhibitor combinations” (LYTIX BIOPHARMA AS, priority 2014, dated 2025)
Non-standard residues stand in square brackets, D forms with d. Residues, ends and D or L forms follow the SMILES beside them. Dip = N[C@H](C(=O)O)C(c1ccccc1)c1ccccc1

Tests used:
human red blood cells = assay: Haemolytic activity in vitro; type: cell-based; details: 1 h, 37° C.
Procedure: Freshly collected human blood was centrifuged at 1500 rpm for 10 minutes in order to isolate the red blood cells. The red blood cells (RBC) were washed three times with PBS [35 mM phosphate buffer with 150 mM NaCl, pH 7.4] by centrifugation at 1500 rpm for 10 minutes, and adjusted to 10% haematocrit with PBS. LTX-315 solutions were added to give a final concentration range of the peptide from 1200 μg/ml to 1 μg/ml and an RBC concentration of 1%. The resulting suspension was incubated with agitation for one hour at 37° C. After incubation the suspension was centrifuged at 4000 rpm for 5 minutes, and the released haemoglobin were monitored by measuring the absorbance of the supernatant at 405 nm. PBS was used as negative control and assumed to cause no haemolysis. 0.1% Triton was used as positive control and assumed to cause complete haemolysis.
Released haemoglobin was monitored by measuring the absorbance of the supernatant at 405 nm, and percent haemolysis was calculated by the equation: […]
LTX-315 concentration corresponding to 50% haemolysis (ECs) was determined from a dose-response curve.

A375 cells [1] = assay: TEM electron microscopy, ultrastructural changes; type: cell-based, human
Procedure: A375 cells were seeded at 1×10^5 cells per well in 6-well plates and allowed to grow for three days to optimize membrane structures in the culture, and the media was changed on the second day. Cells were washed twice in serum-free RPMI before being treated with LTX-315 dissolved in serum-free RPMI at 5, 10 and 25 μg/ml, with serum-free RPMI as a negative control. Cells were then washed with PBS twice before fixation for 24 hours in 4° C. with 4% formaldehyde and 1% gluteralaldehyde in a Hepes buffer at pH 7.8. Dehydration and post-fixation protocols included incubation in a 5% buffered tannic acid and incubation in a 1% osmium-reduced ferrocyanide. Ultrathin sections were prepared, and uranyl acetate (5%) and Reynolds's lead citrate were used for staining and contrasting. Samples were examined on a JEOL JEM-1010 transmission electron microscope, and images were taken with an Olympus Morada side-mounted TEM CCD camera (Olympus soft imaging solutions, GmbH, Germany).

human A547 cells = assay: TEM, mitochondrial membrane; type: cell-based; details: 10 μg/ml, 60 minutes
Procedure: FIG. 16 LTX-315 disintegrates the mitochondria membrane. TEM images of FIG. 16a: human A547 melanoma cells treated with LTX-315 (10 μg/ml) for 60 minutes compared to FIG. 16b: control cells.

A375 cells [2] = assay: Release of HMGB1, Western blot of lysate and supernatant; type: cell-based, human; details: 35 μM, 5-60 min
Procedure: A375 cells were seeded with 3×10^5 cells/well in 6-well plates in a complete media, and allowed to adhere overnight. Cells were treated with LTX-315 or LTX-328 at 35 μM, and incubated at 37° C. and 5% CO2 for different time points (5, 10, 15, 30, 60 min), and negative controls were serum-free RPMI-1650. Supernatants (S) were collected and centrifuged at 1,400 g for five minutes, and cell lysates (L) were harvested after washing with PBS twice and then subsequently lysed using a 4× Sample buffer (Invitrogen, number), 0.1 M DTT (Sigma number) and water. Supernatants were concentrated using Amicon Ultra 50K centrifugal filters (Millipore UFC505024), and the cell lysate was sonicated. Both supernatants and lysate were boiled and resolved in a 10% sodium dodecyl sulfate polyacrylamide gel electrophoresis (SDS-PAGE), and then electro transferred to a polyvindiline difluoride (PVDF) membrane (Millipore). The membrane was blocked in 5% milk and incubated with the HMGB1 antibody (rabbit, polyclonal, abcam ab 18256); the membrane was then rinsed several times with TBST, incubated with a horseradish peroxidase (HRP)-conjugated secondary antibody (abcam ab6721), rinsed again with TBST and then developed using WB Luminol Reagent (Santa Cruz Biotechnology, Heidelberg, Germany).

## NCCCC[C@H](NC(=O)[C@@H](NC(=O)[C@H](Cc1c[nH]c2ccccc12)NC(=O)[C@H](CCCCN)NC(=O)[C@H](CCCCN)NC(=O)[C@H](Cc1c[nH]c2ccccc12)NC(=O)[C@H](Cc1c[nH]c2ccccc12)NC(=O)[C@H](CCCCN)NC(=O)[C@@H](N)CCCCN)C(c1ccccc1)c1ccccc1)C(N)=O [LTX-315, K-K-W-W-K-K-W-Dip-K-NH2] (H-KKWWKKW[Dip]K-NH2)
Human red blood cells; LTX-315 1 μg/ml
  Mean cell death (%): 0.0%
Human red blood cells; LTX-315 10 μg/ml
  Mean cell death (%): 0.6%
Human red blood cells; LTX-315 50 μg/ml
  Mean cell death (%): 1.6%
Human red blood cells; LTX-315 100 μg/ml
  Mean cell death (%): 3.6%
A375 cells [1]; 3.5 μM
  cells with vacuolization: approximately 20%
A375 cells [1]; 3.5 μM, 60 minutes
  number of necrotic cells: less than 5%
A375 cells [1]; 17 μM, 60 min
  cells displaying vacuolization: 4%
  cells with necrotic morphology with loss of plasma membrane integrity: approximately 40%
Human A547 cells
  effect on the mitochondrial membrane (TEM): disintegration of the mitochondrial membrane
A375 cells [2]
  HMGB1 translocation from cell lysate to supernatant: gradual translocation from the cell lysate to the supernatant detected
